Series [1] has as its system mouse leukemia L1210 cells. Briefly: Effectiveness against mouse leukemia L1210 cells (in vitro test), cytotoxicity by trypan blue dye exclusion. Type of series: cell-based. To be noted: Mus musculus, read-out: IC50 (mean dose producing 50%-killing of tumor cells). The protocol: Effectiveness against mouse leukemia L1210 cells (in vitro test)
A suspension of cells in culture medium was transferred into wells in a microplate in an amount of 1×10^5 L1210-cells/well. Test sample diluted with a culture medium was added to the suspension in each well, and the mixture was incubated on the medium at 37° C. for 3 days in an atmosphere of air containing 5% carbon dioxide.
Thereafter, the incubated cells were recovered from the microplate and the number of live cells was counted by the dye exclusion test using a 0.5% solution of trypan blue and by using a hemocytometer.

The subject of series [2] is Ehrlich solid tumor. Briefly: Test 2: Anti-tumor test against Ehrlich solid tumor. Type of series: in vivo, ddY/SLC mice. Particulars: Mus musculus, Ehrlich, ip, 504 h, read-out: Growth Inhibition Rate; for inhibition in vivo at 50 mg/kg / inhibition in vivo at 100 mg/kg: i.p., days 1 through 9, tumor weight day 21. The protocol:
Anti-tumor test against Ehrlich solid tumor
Ehrlich tumor cells, 2×10^6, on Day 7 after intraperitoneal transplantation to ddY/SLC mice, were subcutaneously transplanted in the left abdomen of ddY/SLC mice (5week age, male)--10 to a group. The active component was intraperitoneally administered in a definite dose 24 hours after the transplantation. (administration: once per one day; 1 through 9 days)
(§1) Growth inhibition rate (%)=(C-T)/C×100
T: mean tumor weight in the active component-administered group
c: mean tumor weight in the control group

The subject of series [3] is Ehrlich solid tumor. Briefly: Test 5: Antitumor test against Ehrlich solid tumor. Type of series: in vivo, ddY/SLC mice. To be noted: intraperitoneal (1 to 9 days), day 21. The procedure: Antitumor test against Ehrlich solid tumor
Ehrlich tumor cells, 3×10^6, on Day 6 after intraperitoneal transplantation to ddY/SLC mice, were subcutaneously transplanted in the left abdomen of ddY/SLC mice (5 week age, male)--10 mice to a group (37 mice for the control group). The active component was intraperitoneally administered in a definite dose 24 hours after the transplantation, according to the scheduled shown in Table 4. The tumor growth inhibition was assessed by measuring the weight of each tumor on the 21th day after transplantation, and determining the tumor growth inhibition rate of the active component-administered group to the control group, according to the following equation.
as §1
(§2) T: mean tumor weight in the active-component-administered group
(§3) C: mean tumor weight on the control group

Series [4] relates to mouse mammalian MM-46 tumor. Briefly: Test 3: Test against mouse mammalian MM-46 tumor. Type of series: in vivo, C3H/He/SLC mice. The protocol: Test against mouse mammalian MM-46 tumor
MM-46 tumor cells, 1×10^6, on day 6 after intraperitonal transplantation to C3 H/He/SLC mice, were intraperitoneally transplanted to C3H/He/SlC mice (6 week age, male)--10 mice to a group. The active component was orally administered in a definite dose 24 hours after the transplantation according to the schedule shown in Table 2. The tumor growth inhibition was evaluated as the percentage of the median survival day of the administered group versus that of the control group, according to the following equation.
T: median survival day of the administered group
C: median survival day of the control group

The next series deals with mouse M5076 solid tumor. Briefly: Test 4: Anti-tumor test against mouse M5076 solid tumor. Type of series: in vivo, BDF1/SLC mice. Particulars: p.o. (1-9 days), day 14. The protocol: Anti-tumor test against mouse M5076 solid tumor
M5076 Tumor cells, 1×10^6, on day 14 after intraperitoneal transplantation to C57BL16/cRJ mice, were subcutaneously transplanted to the left abdomen of BDF1/SLC mice (8 week age, male)--10 mice to a group (20 mice for the control group). The active component was orally administered in a definite dose 24 hours after the transplantation according to the schedule shown in Table 3. The tumor growth inhibition was assessed by measuring the weight of each tumor on days 14 after the transplantation, and determining the tumor growth inhibition rate of the active component-administered group to the control group, according to the following equation.
as §1, §2, §3

Series [5] is described as follows: Toxicity test (acute toxicity). Type of series: in vivo. To be noted: mouse, in vivo, male ddY mice. The procedure:
(§4) The active component (the Compound of Example 45) was orally administered to ddY mice (mean body weight of 30 g, male). […] Accordingly, the acute toxicity of the Compound is greater than 1,600 mg/kg (oral administration).
(§5) Accordingly, the acute toxicity of the Compound in the case of intraperitoneal administration is greater than 800 mg/kg.

Another series concerns ddY mice. Briefly: Toxicity test (acute toxicity). Type of series: in vivo. To be noted: intraperitoneal, up to a dose of 800 mg/kg. The protocol: as §4, §5
Where [6] appears, read: 72 h, L1210 cells, 3 days, 37° C.

Where two headings read alike, the source gives them in different places.

Take `O=c1[nH]cc(F)c(=O)[nH]1` [5-Fluorouracil, reference compound]: the IC50 in series [1] (L1210, 72 h) came to 0.41 µM. In addition, in the series on Ehrlich solid tumor [2], the inhibition in vivo at 25 mg/kg was 61%. The “Growth Inhibition Rate” value in the series with Ehrlich solid tumor [3] (12.5 mg/kg) was found to be 36.4%; with Ehrlich solid tumor [3] (25 mg/kg), 45.6%. Further, the results for the “Weight of Tumor” value in the series with Ehrlich solid tumor [3] (12.5 mg/kg) and with Ehrlich solid tumor [3] (25 mg/kg) were 2.55 ± 1.21 g and 2.18 ± 0.96 g, respectively.
Take `CC(C)(CCCCOc1ccc(OCCCCCn2ccnc2)cc1)C(=O)O` [Example 45, 6-[p-[5-(1-imidazolyl)pentyloxy]phenoxy]-2,2-dimethylhexanoic acid]: the IC50 in series [1] (setting [6]) came out at 42.5 µM. The “Median Survival Day” value worked out at 8.0 days in series [4] (100 mg/kg, p.o. (1-6 days)); 8.0 days in series [4] (200 mg/kg, p.o. (1-6 days)); 8.0 days in series [4] (400 mg/kg, p.o. (1-6 days)); 10.0 days in series [4] (800 mg/kg, p.o. (1-8 days)). For the same molecule, the “No. of 20-day Survivors” value in series [4] (100 mg/kg, p.o. (1-6 days)) was 0/10; in series [4] (200 mg/kg, p.o. (1-6 days)), 0/10; in series [4] (400 mg/kg, p.o. (1-6 days)), 0/10; in series [4] (800 mg/kg, p.o. (1-8 days)), 0/10. The “T/C (median survival)” value in series [4] (100 mg/kg, p.o. (1-6 days)) came out at 114.3%; in series [4] (200 mg/kg, p.o. (1-6 days)) it was 114.3%; in series [4] (400 mg/kg, p.o. (1-6 days)) it was 114.3%; in series [4] (800 mg/kg, p.o. (1-8 days)), 142.9%. For the same molecule, the “Growth Inhibition Rate” value in the series on mouse M5076 solid tumor (100 mg/kg) worked out at 13.1%; with mouse M5076 solid tumor (200 mg/kg) it was 19.7%; in the series on mouse M5076 solid tumor (400 mg/kg) it was 11.5%; in the series on mouse M5076 solid tumor (800 mg/kg), 23.0%; in the series with Ehrlich solid tumor [3] (50 mg/kg), 29.9%; with Ehrlich solid tumor [3] (100 mg/kg) it was 49.1%. Moreover, the “Growth Inhibition Rate” value was 63.6% with Ehrlich solid tumor [3] (200 mg/kg) and 57.6% with Ehrlich solid tumor [3] (400 mg/kg). Besides, the “Weight of Tumor” value with mouse M5076 solid tumor (100 mg/kg) was determined as 0.53 ± 0.09 g; in the series on mouse M5076 solid tumor (200 mg/kg), 0.49 ± 0.14 g; in the series with mouse M5076 solid tumor (400 mg/kg) it was 0.54 ± 0.12 g; with mouse M5076 solid tumor (800 mg/kg), 0.47 ± 0.09 g; with Ehrlich solid tumor [3] (50 mg/kg), 2.81 ± 1.55 g; in the series on Ehrlich solid tumor [3] (100 mg/kg), 2.04 ± 1.26 g. Further, the entries for the “Weight of Tumor” value in the series on Ehrlich solid tumor [3] (200 mg/kg) and in the series on Ehrlich solid tumor [3] (400 mg/kg) were 1.46 ± 0.50 g and 1.70 ± 0.60 g, respectively. The median lethal dose (LD50) was over 800 mg/kg in series [5] (ip, intraperitoneal administration) and over 1600 mg/kg in series [5] (oral administration). The death result with ddY mice is listed as “no example of death was noted”.
In the case of `O=c1[nH]c(=O)n(C2CCCO2)cc1F` (stereo not shown) [Tetrahydrofuryl-5-fluorouracil, reference compound], in series [4] (100 mg/kg, p.o. (1-6 days)), the “Median Survival Day” value came out at 6.0 days, the “No. of 20-day Survivors” value was 0/10 and the “T/C (median survival)” value is listed as 85.7%. Further, in series [4] (200 mg/kg, p.o. (1-6 days)), the “Median Survival Day” value is 7.0 days, the “No. of 20-day Survivors” value was 0/10 and the “T/C (median survival)” value worked out at 100%. Further, in the series on mouse M5076 solid tumor (100 mg/kg), the “Growth Inhibition Rate” value is listed as 14.8% and the “Weight of Tumor” value was determined as 0.52 ± 0.19 g. Further, in the series with mouse M5076 solid tumor (200 mg/kg), the “Growth Inhibition Rate” value is listed as 39.3% and the “Weight of Tumor” value was found to be 0.37 ± 0.08 g.
`CCOC(=O)C(C)(C)CCCCOc1ccc(OCCCCCOCc2ccccn2)cc1` [Example 17]: the IC50 in series [1] (setting [6]) is 13.7 µM. The inhibition in vivo at 50 mg/kg with Ehrlich solid tumor [2] worked out at 36.6%.
For `CCCCCCCCCOc1ccc(OCCCCCn2ccnc2)cc1` [Example 7, [p-[5-(1-imidazolyl)pentyloxy]phenoxy]nonane], the IC50 in series [1] (setting [6]) was determined as 11 µM. For the same molecule, the inhibition in vivo at 100 mg/kg in the series with Ehrlich solid tumor [2] is 45%.
In the case of `NC(=O)CCCCCOc1ccc(OCCCCCn2ccnc2)cc1` [Example 56], the IC50 in series [1] (setting [6]) came to 13.8 µM. The inhibition in vivo at 100 mg/kg in the series on Ehrlich solid tumor [2] turned out to be 30.2%.
On the same counts, the results for `CCOC(=O)C(C)(C)CCCCOc1ccc(OCCCCCn2cccc2)cc1` [Example 15] are 28.9 µM and 38.8%.
Turning to `CC(C)(CCCCOc1ccc(OCCCCCn2cccn2)cc1)C(N)=O` [Example 4], in series [1] (setting [6]), the IC50 came out at 4.9 µM. In the series with Ehrlich solid tumor [2], the inhibition in vivo at 100 mg/kg worked out at 50.1%.
As for `CCCCCCCCCCNC(=O)C(C)(C)CCCCOc1ccc(OCCCCCn2ccnc2)cc1` [Example 51], the IC50 in series [1] (setting [6]) was determined as 0.6 µM. Also, in the series with Ehrlich solid tumor [2], the inhibition in vivo at 50 mg/kg was found to be 42.5%.
For the molecule `CCOC(=O)C(C)(C)CCCCOc1ccc(OCCCCCSc2ccncc2)cc1` [Example 19, ethyl 6-[p-[5-(4-pyridylmercapto)pentyloxy]phenoxy]-2,2-dimethylhexanoate], the IC50 in series [1] (setting [6]) amounted to 5.7 µM. The inhibition in vivo at 100 mg/kg in the series on Ehrlich solid tumor [2] is 47.6%.
With `CC(C)(C)OC(=O)C(C)(C)CCCCOc1ccc(OCCCCCn2ccnc2)cc1` [Example 6], the IC50 in series [1] (setting [6]) was found to be 6.8 µM. Moreover, the inhibition in vivo at 100 mg/kg in the series on Ehrlich solid tumor [2] amounted to 43.8%.
For `COc1ccc(OCCCCCn2ccnc2)cc1` [Example 11, 1-[5-(1-imidazolyl)pentyloxy]-4-methoxybenzene] the same measures were 40 µM and 33.4%.
With `CCOC(=O)C(C)(C)CCCCOc1ccc(OCCCCCSc2nnnn2C)cc1` [Example 22, ethyl 6-[p-[5-(1-methyl-5-tetrazolylmercapto)pentyloxy]phenoxy]-2,2-dimethylhexanoate], in series [1] (setting [6]), the IC50 is 6.7 µM. For the same molecule, the inhibition in vivo at 100 mg/kg with Ehrlich solid tumor [2] was found to be 40.2%.
Regarding `CC(C)(CCCCOc1ccc(OCCCCCn2ccnc2)cc1)C(=O)Nc1ccccc1` [Example 53], in series [1] (setting [6]), the IC50 is 4.3 µM. In addition, the inhibition in vivo at 100 mg/kg with Ehrlich solid tumor [2] was found to be 49.3%.

For orientation: IC50 means the midpoint of a concentration-inhibition curve. For orientation: LD50 means the dose at which mortality reaches 50%.

(Values after patent US4891432A, “Phenoxy imidazole compound” (Yamanouchi Pharmaceutical Co., Ltd., priority 1986, dated 1990).)
